Laboratory results as given in patent US6893627B2, “Method for treating type 2 diabetes with an extract of Artemisia” (Rutgers, The State University of New Jersey, priority 2001, dated 2005).

System: Streptozotocin (STZ)-treated mice
Assay: Blood glucose lowering in Streptozotocin (STZ)-treated mice
Assay type: in vivo
Settings: insulin 1 IU/kg subcutaneously
Protocol: The efficacy of the Artemisia dracunculus extract was evaluated in Streptozotocin (STZ)-treated mice. STZ induces diabetes by destroying most, if not all, of the beta cells of the pancreas, leaving the animals with little or no insulin production and severe hyperglycemia [Hisashi, et al., European Journal of Pharmacology, 87:237-243 (1983)]. […] Mice were treated with STZ as described by Hisashi et al., European Journal of Pharmacology, 87:237-243 (1983). A 500 mg/kg dose of Artemisia dracunculus extract was administered daily by oral gavage to STZ-treated mice for a period of 7 days. Additionally, a dose of insulin (1 IU/kg) was administered. subcutaneously to STZ-treated mice, while 20 ml/kg of vehicle only (0.9% NaCl or 2% Tween 80 in distilled water) was administered to STZ-treated mice, as a control. […] Regardless of mechanism, however, the results establish that plant extracts, such as the mildly polar ethanolic extract of A. dracunculus, can be orally administered in a dose effective in lowering blood glucose levels.

In the case of insulin, the “reduction in blood glucose concentrations” value is reported as 42%.
